Measurements as given in ChEMBL document CHEMBL6078713, “Synthesis and mechanistic studies of 4-aminoquinoline-Isatin molecular hybrids and Schiff's bases as promising antimicrobial agents” (Eur J Med Chem, 2025).
Converted amounts (≈) assume the structure as drawn.

How the values were obtained:
Enterococcus faecalis [1] = assay: Antibacterial activity against Enterococcus faecalis MTCC 439 assessed as diameter of zone of inhibition at 500 ug/ml by agar disk diffusion method; format: functional; conditions: read-out: DIZ
Escherichia coli [2] = assay: Antibacterial activity against Escherichia coli MTCC 443 assessed as diameter of zone of inhibition at 500 ug/ml by agar disk diffusion method; format: functional; conditions: read-out: DIZ
Salmonella typhi [3] = assay: Antibacterial activity against Salmonella typhi assessed as diameter of zone of inhibition at 500 ug/ml by agar disk diffusion method; format: functional, Salmonella enterica subsp. enterica serovar Typhi; conditions: Salmonella enterica, read-out: DIZ
Bacillus subtilis [4] = assay: Antibacterial activity against Bacillus subtilis MTCC 736 assessed as diameter of zone of inhibition at 500 ug/ml by agar disk diffusion method; format: functional; conditions: read-out: DIZ
Staphylococcus aureus [5] = assay: Antibacterial activity against Staphylococcus aureus MTCC 902 assessed as diameter of zone of inhibition at 500 ug/ml by agar disk diffusion method; format: functional; conditions: read-out: DIZ
Pseudomonas aeruginosa [6] = assay: Antibacterial activity against Pseudomonas aeruginosa MTCC 2453 assessed as diameter of zone of inhibition at 500 ug/ml by agar disk diffusion method; format: functional; conditions: read-out: DIZ
Escherichia coli [7] = assay: Antibacterial activity against Escherichia coli MTCC 443 assessed as inhibition of bacterial growth incubated overnight by serial dilution based spectrophotometer; format: functional
Enterococcus faecalis [8] = assay: Antibacterial activity against Enterococcus faecalis MTCC 439 assessed as inhibition of bacterial growth incubated overnight by serial dilution based spectrophotometer; format: functional
Bacillus subtilis [9] = assay: Antibacterial activity against Bacillus subtilis MTCC 736 assessed as inhibition of bacterial growth incubated overnight by serial dilution based spectrophotometer; format: functional
Staphylococcus aureus [10] = assay: Antibacterial activity against Staphylococcus aureus MTCC 902 assessed as inhibition of bacterial growth incubated overnight by serial dilution based spectrophotometer; format: functional
Pseudomonas aeruginosa [11] = assay: Antibacterial activity against Pseudomonas aeruginosa MTCC 2453 assessed as inhibition of bacterial growth incubated overnight by serial dilution based spectrophotometer; format: functional
Salmonella typhi [12] = assay: Antibacterial activity against Salmonella typhi assessed as inhibition of bacterial growth incubated overnight by serial dilution based spectrophotometer; format: functional, Salmonella enterica subsp. enterica serovar Typhi; conditions: Salmonella enterica
Escherichia coli [13] = assay: Bactericidal activity against Escherichia coli MTCC 443 assessed as inhibition of bacterial growth incubated overnight; format: functional
Enterococcus faecalis [14] = assay: Bactericidal activity against Enterococcus faecalis MTCC 439 assessed as inhibition of bacterial growth incubated overnight; format: functional
Bacillus subtilis [15] = assay: Bactericidal activity against Bacillus subtilis MTCC 736 assessed as inhibition of bacterial growth incubated overnight; format: functional
Staphylococcus aureus [16] = assay: Bactericidal activity against Staphylococcus aureus MTCC 902 assessed as inhibition of bacterial growth incubated overnight; format: functional
Pseudomonas aeruginosa [17] = assay: Bactericidal activity against Pseudomonas aeruginosa MTCC 2453 assessed as inhibition of bacterial growth incubated overnight; format: functional
Escherichia coli [18] = assay: Ratio of MBC for antibacterial activity against Escherichia coli MTCC 443 to MIC for bactericidal activity against Escherichia coli MTCC 443; format: functional
Enterococcus faecalis [19] = assay: Ratio of MBC for antibacterial activity against Enterococcus faecalis MTCC 439 to MIC for bactericidal activity against Enterococcus faecalis MTCC 439; format: functional
Pseudomonas aeruginosa [20] = assay: Ratio of MBC for antibacterial activity against Pseudomonas aeruginosa MTCC 2453 to MIC for bactericidal activity against Pseudomonas aeruginosa MTCC 2453; format: functional
Staphylococcus aureus [21] = assay: Ratio of MBC for antibacterial activity against Staphylococcus aureus MTCC 902 to MIC for bactericidal activity against Staphylococcus aureus MTCC 902; format: functional
Bacillus subtilis [22] = assay: Ratio of MBC for antibacterial activity against Bacillus subtilis MTCC 736 to MIC for bactericidal activity against Bacillus subtilis MTCC 736; format: functional
Salmonella typhi [23] = assay: Bactericidal activity against Salmonella typhi assessed as inhibition of bacterial growth incubated overnight; format: functional, Salmonella enterica subsp. enterica serovar Typhi; conditions: Salmonella enterica
Salmonella typhi [24] = assay: Ratio of MBC for antibacterial activity against Salmonella typhi to MIC for bactericidal activity against Salmonella typhi; format: functional, Salmonella enterica subsp. enterica serovar Typhi

SMILES	zone of inhibition at 500 µg/mL (Enterococcus faecalis [1]) [mm]	zone of inhibition at 500 µg/mL (Escherichia coli [2]) [mm]	zone of inhibition at 500 µg/mL (Salmonella typhi [3]) [mm]	zone of inhibition at 500 µg/mL (Bacillus subtilis [4]) [mm]	zone of inhibition at 500 µg/mL (Staphylococcus aureus [5]) [mm]	zone of inhibition at 500 µg/mL (Pseudomonas aeruginosa [6]) [mm]	further results
Clc1ccc2c(NCC/N=C/c3ccc(Br)cc3)ccnc2c1	8						
COc1ccc2c(c1)NC(=O)/C2=N\CCNc1ccnc2cc(Cl)ccc12		16	10				
FC(F)(F)c1ccc(/C=N/CCNc2ccnc3cc(Cl)ccc23)cc1	8	10	9	7	7	8	
CN(C)c1ccc(/C=N/CCNc2ccnc3cc(Cl)ccc23)cc1	8	10	7	8	9	7	
COc1ccc(/C=N/CCNc2ccnc3cc(Cl)ccc23)cc1OC	7	8	8	7	8	7	
O=C1Nc2ccccc2/C1=N/CCNc1ccnc2cc(Cl)ccc12		11		10			
Clc1ccc2c(NCC/N=C/c3ccccc3Cl)ccnc2c1	9	8	9	8	7	9	
O=[N+]([O-])c1cccc(/C=N/CCNc2ccnc3cc(Cl)ccc23)c1	8	9	9	6	8	6	
Clc1ccc(/C=N/CCNc2ccnc3cc(Cl)ccc23)cc1	6	6	6	7		7	
Clc1ccc2c(NCC/N=C/c3ccccc3)ccnc2c1	8	10	6	7	8	8	
Clc1ccc2c(NCC/N=C/c3ccccn3)ccnc2c1	8	11	7	9	8	9	MIC (Escherichia coli [7]): 256 µg/mL (≈ 824 µM); MIC (Enterococcus faecalis [8]): 512 µg/mL (≈ 1650 µM); MIC (Bacillus subtilis [9]): 512 µg/mL (≈ 1650 µM); MIC (Staphylococcus aureus [10]): 512 µg/mL (≈ 1650 µM); MIC (Pseudomonas aeruginosa [11]): 512 µg/mL (≈ 1650 µM); MIC (Salmonella typhi [12]): > 512 µg/mL; MBC (Escherichia coli [13]): 512 µg/mL (≈ 1650 µM); MBC (Enterococcus faecalis [14]): 512 µg/mL (≈ 1650 µM); MBC (Bacillus subtilis [15]): > 512 µg/mL; MBC (Staphylococcus aureus [16]): > 512 µg/mL; MBC (Pseudomonas aeruginosa [17]): 512 µg/mL (≈ 1650 µM); Ratio (Escherichia coli [18]): 2; Ratio (Enterococcus faecalis [19]): 1; Ratio (Pseudomonas aeruginosa [20]): 1
O=C1Nc2ccc(Br)cc2/C1=N/CCNc1ccnc2cc(Cl)ccc12		11	11				
COc1ccc(/C=N/CCNc2ccnc3cc(Cl)ccc23)cc1	8	9	9	6	8	8	
Cc1cccc2c1NC(=O)/C2=N\CCNc1ccnc2cc(Cl)ccc12		11		12	11	12	MIC (Escherichia coli [7]): 256 µg/mL (≈ 702 µM); MIC (Enterococcus faecalis [8]): > 512 µg/mL; MIC (Bacillus subtilis [9]): 256 µg/mL (≈ 702 µM); MIC (Staphylococcus aureus [10]): 256 µg/mL (≈ 702 µM); MIC (Pseudomonas aeruginosa [11]): 256 µg/mL (≈ 702 µM); MIC (Salmonella typhi [12]): > 512 µg/mL; MBC (Escherichia coli [13]): > 512 µg/mL; MBC (Bacillus subtilis [15]): > 512 µg/mL; MBC (Staphylococcus aureus [16]): 256 µg/mL (≈ 702 µM); MBC (Pseudomonas aeruginosa [17]): > 512 µg/mL; Ratio (Staphylococcus aureus [21]): 1
Cc1cc(C)c2c(c1)/C(=N/CCNc1ccnc3cc(Cl)ccc13)C(=O)N2		11			6		
Clc1ccc2c(NCC/N=C/c3ccc[nH]3)ccnc2c1	8	9	9	9	10	7	MIC (Escherichia coli [7]): 256 µg/mL (≈ 857 µM); MIC (Enterococcus faecalis [8]): 512 µg/mL (≈ 1710 µM); MIC (Bacillus subtilis [9]): 512 µg/mL (≈ 1710 µM); MIC (Staphylococcus aureus [10]): 512 µg/mL (≈ 1710 µM); MIC (Pseudomonas aeruginosa [11]): > 512 µg/mL; MIC (Salmonella typhi [12]): > 512 µg/mL; MBC (Escherichia coli [13]): 512 µg/mL (≈ 1710 µM); MBC (Enterococcus faecalis [14]): 512 µg/mL (≈ 1710 µM); MBC (Bacillus subtilis [15]): 512 µg/mL (≈ 1710 µM); MBC (Staphylococcus aureus [16]): > 512 µg/mL; Ratio (Escherichia coli [18]): 2; Ratio (Enterococcus faecalis [19]): 1; Ratio (Bacillus subtilis [22]): 1
Clc1ccc2c(NCC/N=C/c3c[nH]c4ccccc34)ccnc2c1	9	10	9	8	8	7	
COc1ccc2c(c1)/C(=N/CCNc1ccnc3cc(Cl)ccc13)C(=O)N2	10					11	
O=[N+]([O-])c1ccc(/C=N/CCNc2ccnc3cc(Cl)ccc23)cc1	9	12	10	8	10	8	MIC (Escherichia coli [7]): 256 µg/mL (≈ 722 µM); MIC (Enterococcus faecalis [8]): 256 µg/mL (≈ 722 µM); MIC (Bacillus subtilis [9]): 512 µg/mL (≈ 1440 µM); MIC (Staphylococcus aureus [10]): 256 µg/mL (≈ 722 µM); MIC (Pseudomonas aeruginosa [11]): 512 µg/mL (≈ 1440 µM); MIC (Salmonella typhi [12]): 256 µg/mL (≈ 722 µM); MBC (Escherichia coli [13]): 256 µg/mL (≈ 722 µM); MBC (Enterococcus faecalis [14]): 256 µg/mL (≈ 722 µM); MBC (Bacillus subtilis [15]): 512 µg/mL (≈ 1440 µM); MBC (Staphylococcus aureus [16]): > 512 µg/mL; MBC (Pseudomonas aeruginosa [17]): > 512 µg/mL; MBC (Salmonella typhi [23]): 256 µg/mL (≈ 722 µM); Ratio (Escherichia coli [18]): 1; Ratio (Enterococcus faecalis [19]): 1; Ratio (Bacillus subtilis [22]): 1; Ratio (Salmonella typhi [24]): 1
O=C1Nc2c(cccc2[N+](=O)[O-])/C1=N/CCNc1ccnc2cc(Cl)ccc12				11	8		
Oc1cccc(/C=N/CCNc2ccnc3cc(Cl)ccc23)c1	10	13	10	9	10	8	MIC (Escherichia coli [7]): 256 µg/mL (≈ 786 µM); MIC (Enterococcus faecalis [8]): 512 µg/mL (≈ 1570 µM); MIC (Bacillus subtilis [9]): > 512 µg/mL; MIC (Staphylococcus aureus [10]): 512 µg/mL (≈ 1570 µM); MIC (Pseudomonas aeruginosa [11]): > 512 µg/mL; MIC (Salmonella typhi [12]): 256 µg/mL (≈ 786 µM); MBC (Escherichia coli [13]): 256 µg/mL (≈ 786 µM); MBC (Enterococcus faecalis [14]): 512 µg/mL (≈ 1570 µM); MBC (Staphylococcus aureus [16]): > 512 µg/mL; MBC (Salmonella typhi [23]): 256 µg/mL (≈ 786 µM); Ratio (Escherichia coli [18]): 1; Ratio (Enterococcus faecalis [19]): 1; Ratio (Salmonella typhi [24]): 1
O=C1Nc2cc(F)ccc2/C1=N/CCNc1ccnc2cc(Cl)ccc12			7		7		
CC(C)c1ccc(/C=N/CCNc2ccnc3cc(Cl)ccc23)cc1	7	10	10	8	9	12	MIC (Escherichia coli [7]): 256 µg/mL (≈ 728 µM); MIC (Enterococcus faecalis [8]): > 512 µg/mL; MIC (Bacillus subtilis [9]): > 512 µg/mL; MIC (Staphylococcus aureus [10]): 512 µg/mL (≈ 1460 µM); MIC (Pseudomonas aeruginosa [11]): 256 µg/mL (≈ 728 µM); MIC (Salmonella typhi [12]): 256 µg/mL (≈ 728 µM); MBC (Escherichia coli [13]): 256 µg/mL (≈ 728 µM); MBC (Staphylococcus aureus [16]): > 512 µg/mL; MBC (Pseudomonas aeruginosa [17]): > 512 µg/mL; MBC (Salmonella typhi [23]): 256 µg/mL (≈ 728 µM); Ratio (Escherichia coli [18]): 1; Ratio (Salmonella typhi [24]): 1
Cc1ccc(/C=N/CCNc2ccnc3cc(Cl)ccc23)cc1	6	8	6		6	8	
COc1cc(/C=N/CCNc2ccnc3cc(Cl)ccc23)ccc1O	7	9	6		6	7	
Clc1ccc2c(NCC/N=C/c3cccs3)ccnc2c1	8	9	8	8	7	6	
Oc1ccc(/C=N/CCNc2ccnc3cc(Cl)ccc23)cc1	6	10	8	8	9	10	
